We go through 20 compounds from patent publication US6117841A, “Substituted peptidylamine calcium channel blockers” (Warner-Lambert Company, priority 1999, dated 2000).

The first experiment deals with T1, N-type Ca^2+ Channel (Homo sapiens, UniProt Q00975).
T1 construct: host or cells: IMR-32 cells differentiated with dibutyryl cAMP and bromodeoxyuridine
T1 sequence (Q00975 whole entry): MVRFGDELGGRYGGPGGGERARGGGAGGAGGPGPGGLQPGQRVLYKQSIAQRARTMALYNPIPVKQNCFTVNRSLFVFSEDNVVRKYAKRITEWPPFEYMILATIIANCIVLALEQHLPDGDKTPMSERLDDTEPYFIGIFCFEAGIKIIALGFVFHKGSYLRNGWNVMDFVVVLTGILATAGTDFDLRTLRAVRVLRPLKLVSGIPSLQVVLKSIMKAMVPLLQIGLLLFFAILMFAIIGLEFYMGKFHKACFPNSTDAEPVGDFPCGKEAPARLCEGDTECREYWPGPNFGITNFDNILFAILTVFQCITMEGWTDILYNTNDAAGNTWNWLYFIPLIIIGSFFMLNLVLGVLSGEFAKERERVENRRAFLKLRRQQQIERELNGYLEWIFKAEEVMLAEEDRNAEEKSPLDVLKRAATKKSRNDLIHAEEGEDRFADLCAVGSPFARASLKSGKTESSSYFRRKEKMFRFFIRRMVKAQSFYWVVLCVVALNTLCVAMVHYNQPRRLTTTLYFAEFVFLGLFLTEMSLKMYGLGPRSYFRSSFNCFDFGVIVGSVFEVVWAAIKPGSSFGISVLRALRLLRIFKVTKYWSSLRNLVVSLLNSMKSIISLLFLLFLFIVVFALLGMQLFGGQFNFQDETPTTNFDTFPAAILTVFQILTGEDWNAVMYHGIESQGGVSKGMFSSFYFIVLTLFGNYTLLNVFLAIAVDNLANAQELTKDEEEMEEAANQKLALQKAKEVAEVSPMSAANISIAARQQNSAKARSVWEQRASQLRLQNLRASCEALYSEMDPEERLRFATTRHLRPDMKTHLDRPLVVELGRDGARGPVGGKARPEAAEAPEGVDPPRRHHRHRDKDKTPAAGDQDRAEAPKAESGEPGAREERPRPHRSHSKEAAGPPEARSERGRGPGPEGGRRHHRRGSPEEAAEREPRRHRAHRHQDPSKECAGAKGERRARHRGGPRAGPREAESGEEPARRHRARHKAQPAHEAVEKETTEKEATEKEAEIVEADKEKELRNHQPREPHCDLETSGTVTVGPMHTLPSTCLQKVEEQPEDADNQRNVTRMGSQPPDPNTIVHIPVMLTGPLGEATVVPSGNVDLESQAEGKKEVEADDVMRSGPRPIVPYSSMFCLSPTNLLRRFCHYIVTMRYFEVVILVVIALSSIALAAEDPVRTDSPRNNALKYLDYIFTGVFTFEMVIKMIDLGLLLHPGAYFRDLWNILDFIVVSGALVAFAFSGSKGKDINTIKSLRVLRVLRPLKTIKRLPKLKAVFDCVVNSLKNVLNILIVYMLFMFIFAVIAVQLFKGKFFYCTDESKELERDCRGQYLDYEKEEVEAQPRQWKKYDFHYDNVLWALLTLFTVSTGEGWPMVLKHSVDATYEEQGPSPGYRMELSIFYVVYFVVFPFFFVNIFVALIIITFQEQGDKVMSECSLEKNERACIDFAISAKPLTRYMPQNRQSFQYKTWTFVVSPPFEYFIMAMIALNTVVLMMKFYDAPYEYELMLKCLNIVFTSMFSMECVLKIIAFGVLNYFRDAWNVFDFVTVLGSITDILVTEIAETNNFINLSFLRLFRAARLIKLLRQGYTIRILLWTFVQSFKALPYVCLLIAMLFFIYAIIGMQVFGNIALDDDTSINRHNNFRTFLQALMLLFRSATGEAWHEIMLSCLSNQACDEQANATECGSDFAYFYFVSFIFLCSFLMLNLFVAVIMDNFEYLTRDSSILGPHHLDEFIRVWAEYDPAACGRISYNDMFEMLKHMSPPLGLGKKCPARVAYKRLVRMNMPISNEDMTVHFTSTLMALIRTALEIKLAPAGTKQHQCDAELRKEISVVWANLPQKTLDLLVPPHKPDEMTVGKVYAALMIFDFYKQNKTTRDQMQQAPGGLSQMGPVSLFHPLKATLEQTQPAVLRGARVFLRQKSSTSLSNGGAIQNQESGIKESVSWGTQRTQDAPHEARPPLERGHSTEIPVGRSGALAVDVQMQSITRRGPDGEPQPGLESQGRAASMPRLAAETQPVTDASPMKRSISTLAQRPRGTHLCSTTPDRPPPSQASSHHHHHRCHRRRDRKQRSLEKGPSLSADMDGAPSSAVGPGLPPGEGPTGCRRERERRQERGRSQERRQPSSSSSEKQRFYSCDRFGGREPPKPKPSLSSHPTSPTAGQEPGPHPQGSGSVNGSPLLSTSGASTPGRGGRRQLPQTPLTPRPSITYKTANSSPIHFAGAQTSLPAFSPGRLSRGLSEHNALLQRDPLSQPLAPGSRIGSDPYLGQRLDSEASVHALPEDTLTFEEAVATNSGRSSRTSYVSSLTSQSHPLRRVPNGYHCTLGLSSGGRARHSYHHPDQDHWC
T1 sequence (P54284 whole entry partner): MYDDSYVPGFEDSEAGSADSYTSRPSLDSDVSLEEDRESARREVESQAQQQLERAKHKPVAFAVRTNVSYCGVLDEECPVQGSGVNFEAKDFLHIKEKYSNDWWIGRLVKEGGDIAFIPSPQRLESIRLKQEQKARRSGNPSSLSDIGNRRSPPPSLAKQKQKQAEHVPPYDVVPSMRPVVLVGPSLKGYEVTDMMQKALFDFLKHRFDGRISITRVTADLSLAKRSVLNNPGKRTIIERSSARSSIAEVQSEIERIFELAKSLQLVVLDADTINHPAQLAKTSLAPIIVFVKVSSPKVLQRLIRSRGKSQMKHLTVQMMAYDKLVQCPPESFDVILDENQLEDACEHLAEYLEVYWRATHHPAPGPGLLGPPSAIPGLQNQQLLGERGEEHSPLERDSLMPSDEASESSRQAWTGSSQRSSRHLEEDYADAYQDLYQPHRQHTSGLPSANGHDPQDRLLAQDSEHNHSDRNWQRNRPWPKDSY
T1 sequence (P54289 25-946 partner limits assumed): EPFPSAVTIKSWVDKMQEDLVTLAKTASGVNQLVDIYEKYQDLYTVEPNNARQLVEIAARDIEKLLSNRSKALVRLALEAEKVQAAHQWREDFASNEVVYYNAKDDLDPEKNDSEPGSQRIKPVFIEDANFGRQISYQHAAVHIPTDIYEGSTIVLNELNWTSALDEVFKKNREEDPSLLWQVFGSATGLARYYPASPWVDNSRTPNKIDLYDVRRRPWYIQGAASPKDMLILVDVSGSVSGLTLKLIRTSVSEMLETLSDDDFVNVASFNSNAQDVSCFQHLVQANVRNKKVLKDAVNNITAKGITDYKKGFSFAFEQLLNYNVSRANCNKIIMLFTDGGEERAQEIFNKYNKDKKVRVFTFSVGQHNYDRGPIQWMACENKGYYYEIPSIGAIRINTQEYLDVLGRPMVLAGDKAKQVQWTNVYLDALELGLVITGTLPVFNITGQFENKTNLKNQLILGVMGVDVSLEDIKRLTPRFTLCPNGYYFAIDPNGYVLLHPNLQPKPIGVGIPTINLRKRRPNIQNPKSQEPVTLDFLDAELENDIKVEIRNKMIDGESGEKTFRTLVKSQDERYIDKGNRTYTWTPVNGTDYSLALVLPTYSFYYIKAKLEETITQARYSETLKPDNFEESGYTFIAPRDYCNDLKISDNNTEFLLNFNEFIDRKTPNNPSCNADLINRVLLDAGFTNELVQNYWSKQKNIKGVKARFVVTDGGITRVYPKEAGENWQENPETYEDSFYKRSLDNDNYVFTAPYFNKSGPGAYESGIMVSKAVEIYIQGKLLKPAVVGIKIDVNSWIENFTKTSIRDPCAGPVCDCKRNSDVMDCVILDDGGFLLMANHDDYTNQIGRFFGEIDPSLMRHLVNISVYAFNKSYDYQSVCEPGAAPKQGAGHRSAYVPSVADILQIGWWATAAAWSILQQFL
T1 sequence (P54289 947-1103 partner limits assumed): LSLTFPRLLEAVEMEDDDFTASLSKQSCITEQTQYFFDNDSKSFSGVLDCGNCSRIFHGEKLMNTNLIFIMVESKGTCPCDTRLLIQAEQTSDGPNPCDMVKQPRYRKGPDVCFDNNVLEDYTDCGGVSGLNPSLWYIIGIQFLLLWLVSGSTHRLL
The experiment in a line: Measurement of N-type Ca2+ channel blocking potencies in IMR-32 cells using the fluorescent Ca2+ indicator Indo-1. In kind it is cell-based. The note with it: 1 μM; IMR-32 cells, 5 μM nitrendipine. The protocol: Measurement of N-type Ca^2+ Channel Blocking Potencies of Compounds in IMR-32 Cells Using the Fluorescent Ca^2 + Indicator Indo-1
IMR-32 cells are a human tumoral cell line of neural origin. […] Calcium flux into these cells may be induced by stimulation with elevated potassium concentrations. The L-channel component of calcium flux may be blocked by adding 5 μM nitrendipine. The remaining component of calcium entry into the IMR-32 cells is due to calcium flux through N-type calcium channels. Intracellular calcium concentrations are measured using the fluorescent calcium indicator Indo-1. The effect of drug concentration on calcium uptake is studied.
The IMR-32 cell line was obtained from the American Type Culture Collection (Rockville, Md.). Cells were grown in Eagle's Minimum Essential Medium with Earle's salts supplemented with 10% fetal bovine serum, 2 mM L-Gln and antibiotic/antimycotic mixture (Gibco). At approximately 80% confluency, differentiation was induced by the addition of 1 mM dibutyryl cAMP and 2.5 μM bromodeoxyuridine to the medium. After 7 to 13 days of differentiation, cells were detached using 0.5 mM EDTA and loaded with 5 μM Indo-1 acetoxymethyl ester (Molecular Probes, Eugene, Oreg.) at 30° C. for 45 minutes. Loaded cells were washed twice, resuspended (~10^7 cells/mL) in assay buffer (10 mM HEPES/Tris pH 7.4 in Hank's Balanced Salt Solution without bicarbonate or phenol red containing 0.5% bovine serum albumin) and kept on ice until use. Fluorescence measurements were carried out in a Photon Technology International (PTI, South Brunswick, N.J.) Model RF-F3004 spectrofluorometer with dual emission monochromators using excitation at 350 nm and emission at 400 and 490 nm. The instrument was equipped with a thermostated cuvette holder with stirring capabilities as well as with a computer-controlled pump which allowed for reagent addition during measurement. Instrument control and data collection was done by PTI's OSCAR software running on an IBM compatible computer. Different concentrations of the test compounds (60 μL in dimethyl sulfoxide) were added to 5.94 mL of assay buffer containing approximately 3×10^6 loaded cells, and 5 μM nitrendipine (in 30 μL EtOH) to block L-type Ca^2+ channels. Samples were incubated for 10 minutes at 30° C. and then aliquoted into three 10×10 mm disposable acrylic cuvettes. Emission signals at 400 and 490 nm were acquired from each cuvette at 30° C. for 50 seconds. At 20 seconds after the start of reading, cells were depolarized by the addition of 160 μL of stimulation solution (1 M KCl, 68 mM CaCl2) to the cuvette via the computer-controlled pump. Ratio of dual emission signals (400 nm/ 490 nm), which is proportional to intracellular Ca^2+ concentration, was plotted against time, and the difference between maximal response after stimulation and basal value (before stimulation) was determined. Values obtained in this way were plotted as a function of drug concentration. IC50 values of test compounds were calculated by fitting a four-parameter logistic function to the data using the least squares method.
In the case of `CC(C)C[C@@H](C(=O)N[C@@H](Cc1ccc(OCc2ccccc2)cc1)C(=O)N1CCN(Cc2ccccc2)CC1)N(C)Cc1ccc(C(C)(C)C)cc1` (relative stereo) [Example 16, [S-(R*,R*)-2-[(4-tert-Butyl-benzyl)-methyl-amino]-4-methyl-pentanoic acid [1-(4-benzyloxy-benzyl)-2-(4-benzyl-piperazin-1-yl)-2-oxo-ethyl]-amide], the “IMR 32 % of Blockade @ 1 μM” value turned out to be 41%.
Still for that read-out and setting: then `CC(C)C[C@@H](C(=O)N[C@@H](Cc1ccc(OCc2ccccc2)cc1)C(=O)NC(C)(C)C)N(C)Cc1cccnc1` (relative stereo) [Example 101, [S-(R*,R*)]-4-Methyl-2-(methyl-pyridin-3-ylmethyl-amino)-pentanoic acid [2-(4-benzyloxy-phenyl)-1-tert-butylcarbamoyl-ethyl]-amide], with 26%; and `CC(C)C[C@@H](C(=O)N[C@@H](Cc1ccc(OCc2ccccc2)cc1)C(=O)NC1CCN(Cc2ccccc2)CC1)N(C)C` (relative stereo) [Example 5, [S-(R*,R*)]-2-Dimethylamino-4-methyl-pentanoic acid [2-(4-benzyloxy-phenyl)-1-(1-benzyl-piperidin-4-yl-carbamoyl)-ethyl]-amide], with 24%; and `CC(C)C[C@@H](C(=O)N[C@@H](Cc1ccc(OCc2ccccc2)cc1)C(=O)N1CCN(C)CC1)N(C)Cc1ccc(C(C)(C)C)cc1` (relative stereo) [Example 18, [S-(R*,R*)]-2-[(4-tert-Butyl-benzyl)-methyl-amino]-4-methyl-pentanoic acid [1-(4-benzyloxy-benzyl)-2-(4-methyl-piperazin-1-yl)-2-oxo-ethyl]-amide], with 52%.
Still for that read-out and setting: then `CC(C)C[C@@H](C(=O)N[C@@H](Cc1ccc(OCc2ccccc2)cc1)C(=O)NC(C)(C)C)N(C)C(C)CO` (mixture of isomers) [Example 88, [S-[R*,R*,(RS)]]-2-[(2-Hydroxy-1-methyl-ethyl)-methyl-amino]-4-methyl-pentanoic acid [2-(4-benzyloxy-phenyl)-1-tert-butylcarbamoyl-ethyl]-amide], with 30%.

The same experiment, now with this note: 10 μM; IMR-32 cells, 5 μM nitrendipine.
With `CC(C)C[C@@H](C(=O)N[C@@H](Cc1ccc(OCc2ccccc2)cc1)C(=O)N1CCN(Cc2ccccc2)CC1)N(C)Cc1ccc(C(C)(C)C)cc1` (relative stereo) [Example 16, [S-(R*,R*)-2-[(4-tert-Butyl-benzyl)-methyl-amino]-4-methyl-pentanoic acid [1-(4-benzyloxy-benzyl)-2-(4-benzyl-piperazin-1-yl)-2-oxo-ethyl]-amide], the “IMR 32 % of Blockade @ 10 μM” value turned out to be 66%.
On the same count and under the same terms, the result for `CC(C)C[C@@H](C(=O)N[C@@H](Cc1ccc(OCc2ccccc2)cc1)C(=O)NC1CCN(Cc2ccccc2)CC1)N(C)C` (relative stereo) [Example 5, [S-(R*,R*)]-2-Dimethylamino-4-methyl-pentanoic acid [2-(4-benzyloxy-phenyl)-1-(1-benzyl-piperidin-4-yl-carbamoyl)-ethyl]-amide] reads 81%; that for `CC(C)C[C@@H](C(=O)N[C@@H](Cc1ccc(OCc2ccccc2)cc1)C(=O)N1CCN(C)CC1)N(C)Cc1ccc(C(C)(C)C)cc1` (relative stereo) [Example 18, [S-(R*,R*)]-2-[(4-tert-Butyl-benzyl)-methyl-amino]-4-methyl-pentanoic acid [1-(4-benzyloxy-benzyl)-2-(4-methyl-piperazin-1-yl)-2-oxo-ethyl]-amide], 95%.

The same experiment, now with this note: IMR-32 cells, 5 μM nitrendipine; Examples 116-140; read-out: IMR 32% of Blockade @.
For the compound `CC(C)C[C@@H](C(=O)N[C@@H](Cc1ccc(OCc2ccccc2)cc1)C(=O)NCCc1ccccn1)N1CCOCC1` (relative stereo) [Example 120, [S-(R*,R*)]-4-Methyl-2-morpholin-4yl-pentanoic acid [2-(4-benzyloxy-phenyl)-1-(2-pyridin-2-yl-ethylcarbamoyl)-ethyl]-amide], the IC50 is 6 µM.
Same read-out and setting: the result for `CC(C)C[C@@H](C(=O)N[C@@H](Cc1ccc(OCc2ccccc2)cc1)C(=O)NC(C)(C)CO)N1CCOCC1` (relative stereo) [Example 123, [S-(R*,R*)]-4-Methyl-2-morpholin-4-yl-pentanoic acid [2-(4-benzyloxy-phenyl)-1-(2-hydroxy-1,1-dimethyl-ethylcarbamoyl)-ethyl]-amide] reads 13 µM.
Take `CC(C)C[C@@H](C(=O)N[C@@H](Cc1ccc(OCc2ccccc2)cc1)C(=O)NCCN1CCSCC1)N1CCOCC1` (relative stereo) [Example 122, [S-(R*,R*)]-4-Methyl-2-morpholin-4-yl-pentanoic acid [2-(4-benzyloxy-phenyl)-1-(2-thiomorpholin-4-yl-ethylcarbamoyl)-ethyl]-amide]: the IC50 amounted to 3.1 µM.

The experiment is the same for the next values; noted with them: IMR-32 cells, K+ depolarization, 5 μM nitrendipine to block L-type channels; read-out: IMR 32 IC50.
As to `CC(C)C[C@@H](C(=O)N[C@@H](Cc1ccc(OCc2ccccc2)cc1)C(=O)NC(C)(C)C)N(C)C` (relative stereo) [Example 1, [S-(R*,R*)]-2-Dimethylamino-4-methyl-pentanoic acid [2-(4-benzyloxy-phenyl)-1-tert-butylcarbamoyl-ethyl]-amide], the IC50 was 2.3 µM.
The same measure, in the same setting: then `CC(C)C[C@@H](C(=O)N[C@@H](Cc1ccc(OCc2ccccc2)cc1)C(=O)NC(C)(C)C)N1CCCCC1` (relative stereo) [Example 99, [S-(R*,R*)]-4-Methyl-2-piperidin-1-yl-pentanoic acid [2-(4-benzyloxy-phenyl)-1-tert-butylcarbamoyl-ethyl]-amide], with 1.4 µM; and `CC(C)CCN(C)[C@@H](CC(C)C)C(=O)N[C@@H](Cc1ccc(OCc2ccccc2)cc1)C(=O)N1CCSCC1` (relative stereo) [Example 61, [S-(R*,R*)]-4-Methyl-2-[methyl-(3-methyl-butyl)-amino]-pentanoic acid [1-(4-benzyloxy-benzyl)-2-oxo-2-thiomorpholin-4-yl-ethyl]-amide], with 0.4 µM.
As for `CC(C)C[C@@H](C(=O)N[C@@H](Cc1ccc(OCc2ccccc2)cc1)C(=O)NC(C)(C)C)N(C)C(C)C` (relative stereo) [Example 86, [S-(R*,R*)]-2-(Isopropyl-methyl-amino)-4-methyl-pentanoic acid [2-(4-benzyloxy-phenyl)-1-tert-butylcarbamoyl-ethyl]-amide], the IC50 came out at 2.8 µM.
As to `CC(C)CC(C(=O)NC(Cc1ccc(OCc2ccccc2)cc1)C(=O)NC(C)(C)C)N(C)Cc1ccc(F)cc1` (stereo not drawn) [Example 80, [S-(R*,R*)]-2-[(4-Fluoro-benzyl)-methyl-amino]-4-methyl-pentanoic acid [2-(4-benzyloxy-phenyl)-1-tert-butylcarbamoyl-ethyl]-amide], the IC50 amounted to 0.3 µM.
On the same count and under the same terms, the result for `CC(C)CCN(C)[C@@H](CC(C)C)C(=O)N[C@@H](Cc1ccc(OCc2ccccc2)cc1)C(=O)NCCCn1ccnc1` (relative stereo) [Example 59, [S-(R*,R*)]-4-Methyl-2-[methyl-(3-methyl-butyl)-amino]-pentanoic acid [2-(4-benzyloxy-phenyl)-1-(3-imidazol-1-yl-propylcarbamoyl)-ethyl]-amide] reads 1.6 µM.
Turning to `CC(C)CCN(C)[C@@H](CC(C)C)C(=O)N[C@@H](Cc1ccc(OCc2ccccc2)cc1)C(=O)NC1CCN(Cc2ccccc2)C1` (relative stereo) [Example 67, [S-(R*,R*)]-4-Methyl-2-[methyl-(3-methyl-butyl)-amino]-pentanoic acid [2-(4-benzyloxy-phenyl)-1-(1-benzyl-pyrrolidin-3-ylcarbamoyl)-ethyl]-amide], the IC50 stood at 0.4 µM.
Take `CCCCN(C)[C@@H](CC(C)C)C(=O)N[C@@H](Cc1ccc(OCc2ccccc2)cc1)C(=O)NC(C)(C)C` (relative stereo) [Example 41, [S-(R*,R*)]-2-(Butyl-methyl-amino)-4-methyl-pentanoic acid [2-(4-benzyloxy-phenyl)-1-tert-butylcarbamoyl-ethyl]-amide]: the IC50 is 0.28 µM.
Still for that read-out and setting: then `CC(C)C[C@H](NCc1ccc(C(C)(C)C)cc1)C(=O)N[C@@H](Cc1ccc(OCc2ccccc2)cc1)C(=O)OC(C)(C)C` (relative stereo) [Example 32, [S-(R*,R*)]-3-(4-Benzyloxy-phenyl)-2-[2-(4-tert-butyl-benzylamino)-4-methyl-pentanoylamino]-propionic acid tert-butyl ester], with 0.25 µM.
Same read-out and setting: then `CN[C@@H](CC(C)C)C(=O)N[C@@H](Cc1ccc(OCc2ccccc2)cc1)C(=O)NC(C)(C)C` (relative stereo) [Example 35, [S-(R*,R*)]-4-Methyl-2-methylamino-pentanoic acid [2-(4-benzyloxy-phenyl)-1-tert-butylcarbamoyl-ethyl]-amide], with 2.3 µM; and `CC(C)C[C@@H](C(=O)N[C@@H](Cc1ccc(OCc2ccccc2)cc1)C(=O)NC(C)(C)C)N(C)Cc1ccc(O)cc1` (relative stereo) [Example 82, [S-(R*,R*)]-2-[(4-Hydroxy-benzyl)-methyl-amino]-4-methyl-pentanoic acid [2-(4-benzyloxy-phenyl)-1-tert-butylcarbamoyl-ethyl]-amide], with 1.3 µM.
The same measure, in the same setting: the result for `CC(C)C[C@@H](C(=O)N[C@@H](Cc1ccc(OCc2ccccc2)cc1)C(=O)NCCNCc1ccccc1)N1CCOCC1` (relative stereo) [Example 68, [S-(R*,R*)]-4-Methyl-2-morpholin4-yl-pentanoic acid [1-(2-benzylamino-ethylcarbamoyl)-2-(4-benzyloxy-phenyl)-ethyl]-amide] reads 1.1 µM.
